Results on 18 compounds are retold here after patent US11878970B2, “Allosteric chromenone inhibitors of phosphoinositide 3-kinase (PI3K) for the treatment of disease” (Petra Pharma Corporation, priority 2021, dated 2024).

Assay [1] deals with T1, PI3K-α (PIK3CA) wild-type (WT), p110α/p85α complex (Homo sapiens, UniProt P42336).
T1 construct: Recombinant, catalytically active human full length PIK3KA Wild-type and H1047R mutant; 6×His (N); purchased EMD Millipore Sigma 14-602M
Nature of the assay: PI3K-alpha kinase (PIK3CA) biochemical activity, ADP-Glo, wild-type. Conditions: Soy PI lipid substrate. The method, boiled down:
(§1)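 ADP formation measured by ADP-Glo luminescence after reaction at 27 °C to about 10% ATP turnover, using 20 uM ATP, 50 uM PIP2diC8 or soy PI lipid, HEPES pH 7.4 with MgCl2. Enzyme (1-5 nM WT or H1047R p110α/p85α) and compound preincubated 1 h first; 10-point 1:3 curves fitted four-parameter for IC50.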
(In general: In ADP-Glo the light output rises with the ADP produced.)

Assay [2] has as its target PI3K-α (PIK3CA) in MDA-MB-453 cells (Homo sapiens, UniProt P42336). Nature of the assay: PI3K-alpha kinase (PIK3CA) in vitro cell based assay, MDA-MB-453 cells, SureFire Ultra AlphaLisa. Conditions: read-out: PI3K-α (PIK3CA) in vitro cell based assay IC50. As to the method: PI3K-Alpha Kinase (PIK3CA) Activity In Vitro Cell Based Assay and Determining IC50 Values for Inhibitors
The MDA-MB-453 (ATCC-HTB-131) cell line was obtained from the American Type Culture Collection (Manassas, VA). Cells were maintained in Dulbecco's Modified Eagle Media (DMEM, Gibco 11965-092) supplemented with 10% Fetal Bovine Serum, heat inactivated (FBS HI, Gibco 10082-147), 1× non-essential amino acids (NEAA, Gibco 11140-050), and 1 mM sodium pyruvate (Gibco 11360-070). Cultures were maintained in a humidified incubator at 37° C. under 5% CO2/95% air.
For compound testing in 0% FBS, MDA-MB-453 cells were seeded at a density of 1.5×10^4 cells per well in white 384-well plates in 20 μl of Minimum Essential Media (MEM) assay media with 1×NEAA, 1 mM sodium pyruvate, and 1 μg/mL human insulin (Sigma I9278). Compounds dissolved in 10 mM stock solutions in DMSO were serially diluted 1:3 in DMSO to generate a 10-point dilution series and plated using an acoustic liquid handler system (Echo 550 Series Liquid Handler, Labcyte). A 5× intermediate compound dilution plate in MEM with 1×NEAA and 1 mM sodium pyruvate (150 μM starting compound concentration in 1.5% DMSO) was then prepared. Five μl of the intermediate serially diluted compounds were added to the cell plate to final concentrations ranging from […] in 0.3% DMSO. 0.3% DMSO alone was used to establish the maximum (MAX) signal and GDC-0032 at a final concentration of 1 μM was used as a reference compound for the minimum (MIN) signal. After 3 hours treatment, the medium was removed, and the cells lysed in 10 μL of 1× SureFire Lysis buffer with shaking for 10 minutes at room temperature. The Acceptor Mix (Reaction Buffer 1+Reaction Buffer 2+Activation Buffer+SureFire Ultra Acceptor Beads) was prepared by diluting Activation buffer 25-fold in combined Reaction Buffer 1 and Reaction Buffer 2. The Acceptor beads were diluted 50-fold in the combined Reaction Buffers. Five μL of Acceptor Mix was added to each well, the plate was sealed and covered with foil and incubated for 1 hour at room temperature. The Donor Mix (dilution buffer+SureFire Ultra Donor Beads) was prepared by diluting Donor Beads 50-fold in dilution buffer. Five μL of the Donor Mix was added to each well and the plate sealed and covered with foil and incubated for 1 hour at room temperature in the dark. The plates were read on a Neo2 plate reader instrument from Biotek using standard AlphaLisa settings. Compounds were tested in duplicate and the average % inhibition at each compound concentration was used to generate a single dose response curve. The data were processed using the Genedata-Screener tool. Relative IC50 values were determined using luminescence units by calculating percent inhibition with respect to the in-plate “MIN” (GDC-0032 reference control) and “MAX” (DMSO) controls. The data was analyzed using a 4-parameter nonlinear logistic equation (four-parameter logistic concentration-response curve): Y=bottom+[(top−bottom)/1+(X/IC50)slope] where Y=% inhibition, X=concentration of inhibitor, bottom=minimum value of y attained by curve-fit, top=maximum value of y attained by curve-fit and slope=steepness of curve at the IC50. % Inhibition=[(signal at X−median Min)/(median Max−median Min)]×100 IC50: concentration of compound that reduces a given response (ligand binding, enzyme response) by 50%. Relative IC50: concentration giving half the compound's maximum response.
Background: Bead proximity is the source of the signal in Alpha formats.

Assay [3] deals with T2, PI3K-α (PIK3CA) H1047R mutant, p110α/p85α complex (Homo sapiens, UniProt P42336, H1047R).
T2 construct: Recombinant, catalytically active human full length PIK3KA Wild-type and H1047R mutant; 6×His (N); purchased EMD Millipore Sigma 14-792M
As to the kind of experiment: PI3K-alpha kinase (PIK3CA) biochemical activity, ADP-Glo, H1047R mutant. Conditions: Soy PI lipid substrate. The method, boiled down: as §1

Sequence of PI3K-α (PIK3CA) in MDA-MB-453 cells (P27986 2-724): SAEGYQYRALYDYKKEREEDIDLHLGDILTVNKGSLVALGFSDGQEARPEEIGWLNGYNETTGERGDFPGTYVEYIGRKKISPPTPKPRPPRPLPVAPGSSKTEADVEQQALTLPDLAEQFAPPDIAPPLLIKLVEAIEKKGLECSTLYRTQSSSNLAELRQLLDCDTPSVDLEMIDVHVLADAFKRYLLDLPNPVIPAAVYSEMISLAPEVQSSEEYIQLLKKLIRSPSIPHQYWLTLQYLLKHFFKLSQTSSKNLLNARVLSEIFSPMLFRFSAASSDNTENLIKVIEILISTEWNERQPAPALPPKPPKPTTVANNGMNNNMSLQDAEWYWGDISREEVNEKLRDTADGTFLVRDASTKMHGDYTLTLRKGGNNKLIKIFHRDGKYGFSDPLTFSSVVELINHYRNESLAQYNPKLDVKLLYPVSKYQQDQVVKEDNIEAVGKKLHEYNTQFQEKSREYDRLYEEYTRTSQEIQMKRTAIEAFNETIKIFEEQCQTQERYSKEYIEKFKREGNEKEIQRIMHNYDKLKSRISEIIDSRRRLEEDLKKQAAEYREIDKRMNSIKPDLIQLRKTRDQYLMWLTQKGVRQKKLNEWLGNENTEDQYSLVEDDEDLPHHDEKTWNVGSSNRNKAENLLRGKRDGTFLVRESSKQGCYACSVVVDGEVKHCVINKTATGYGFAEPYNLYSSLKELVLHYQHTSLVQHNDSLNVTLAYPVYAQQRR
Sequence of PI3K-α (PIK3CA) in MDA-MB-453 cells (P42336 whole entry): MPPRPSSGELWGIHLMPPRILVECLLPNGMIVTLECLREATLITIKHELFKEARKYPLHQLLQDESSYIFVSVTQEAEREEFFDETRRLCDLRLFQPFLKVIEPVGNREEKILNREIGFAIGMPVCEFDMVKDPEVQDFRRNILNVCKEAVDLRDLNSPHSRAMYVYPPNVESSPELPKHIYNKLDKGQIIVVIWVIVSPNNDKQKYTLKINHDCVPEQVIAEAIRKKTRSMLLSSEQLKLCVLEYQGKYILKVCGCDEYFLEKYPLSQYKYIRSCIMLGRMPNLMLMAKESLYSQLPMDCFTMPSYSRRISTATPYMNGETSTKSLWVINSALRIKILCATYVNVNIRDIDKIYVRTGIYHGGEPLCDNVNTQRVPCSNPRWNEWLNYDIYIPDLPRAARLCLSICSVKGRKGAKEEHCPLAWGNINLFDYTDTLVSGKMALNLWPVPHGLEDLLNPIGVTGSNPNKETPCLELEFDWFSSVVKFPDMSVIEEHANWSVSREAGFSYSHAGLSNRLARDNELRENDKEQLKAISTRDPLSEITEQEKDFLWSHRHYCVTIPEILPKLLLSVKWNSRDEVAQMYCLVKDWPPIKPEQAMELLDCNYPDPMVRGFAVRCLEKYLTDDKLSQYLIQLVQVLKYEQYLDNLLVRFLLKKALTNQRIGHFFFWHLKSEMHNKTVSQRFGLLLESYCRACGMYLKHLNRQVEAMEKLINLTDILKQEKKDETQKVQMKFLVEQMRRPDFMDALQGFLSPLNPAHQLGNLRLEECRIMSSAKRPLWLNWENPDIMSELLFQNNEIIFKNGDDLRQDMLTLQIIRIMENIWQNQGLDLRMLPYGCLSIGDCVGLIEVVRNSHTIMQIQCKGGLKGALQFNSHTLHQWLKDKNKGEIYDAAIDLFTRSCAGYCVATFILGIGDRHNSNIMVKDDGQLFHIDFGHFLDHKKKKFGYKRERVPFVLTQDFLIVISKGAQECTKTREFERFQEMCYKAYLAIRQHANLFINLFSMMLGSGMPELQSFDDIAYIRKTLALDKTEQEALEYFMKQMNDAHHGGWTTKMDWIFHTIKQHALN
T2 sequence (P42336 whole entry H1047R): as the sequence (P42336 whole entry) above, with H1047R counted along it
T2 sequence (P27986 whole entry partner): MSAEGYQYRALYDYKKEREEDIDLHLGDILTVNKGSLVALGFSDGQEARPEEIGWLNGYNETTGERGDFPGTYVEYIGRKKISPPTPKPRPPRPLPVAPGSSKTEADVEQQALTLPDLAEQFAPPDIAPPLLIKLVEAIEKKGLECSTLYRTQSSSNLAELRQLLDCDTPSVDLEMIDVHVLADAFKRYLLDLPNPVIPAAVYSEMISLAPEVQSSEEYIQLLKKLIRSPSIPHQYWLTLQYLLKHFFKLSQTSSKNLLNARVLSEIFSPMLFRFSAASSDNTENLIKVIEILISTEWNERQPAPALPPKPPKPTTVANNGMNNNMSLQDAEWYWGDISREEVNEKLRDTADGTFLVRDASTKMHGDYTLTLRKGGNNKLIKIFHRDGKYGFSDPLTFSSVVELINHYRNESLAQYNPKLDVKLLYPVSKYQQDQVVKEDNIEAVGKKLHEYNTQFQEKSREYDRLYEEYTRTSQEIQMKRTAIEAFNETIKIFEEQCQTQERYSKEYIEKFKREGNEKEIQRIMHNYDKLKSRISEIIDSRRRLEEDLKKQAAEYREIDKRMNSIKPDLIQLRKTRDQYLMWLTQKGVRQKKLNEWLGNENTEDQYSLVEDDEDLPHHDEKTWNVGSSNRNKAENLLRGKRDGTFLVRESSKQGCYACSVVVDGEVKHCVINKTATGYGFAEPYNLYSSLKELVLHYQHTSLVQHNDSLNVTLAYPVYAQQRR

As to `Cc1cc(C(C)Nc2ccc(Cl)nc2C(=O)O)c2oc(-c3cc4ccccc4[nH]3)cc(=O)c2c1` (single isomer, unassigned) [Example 223, 6-Chloro-3-[1-[2-(1H-indol-2-yl)-6-methyl-4-oxo-chromen-8-yl]ethylamino]pyridine-2-carboxylic acid], the half-maximal inhibitory concentration (IC50) (as a rule, the concentration that gives 50% inhibition) in assay [1] was 0.5 to 1 µM; in assay [2] it was less than 0.05 µM; in assay [3], less than 0.5 µM.

As for `Cc1cc(C(C)Nc2ccc(Cl)nc2C(=O)O)c2oc(-c3ccc4c(cnn4C)c3)cc(=O)c2c1` (single isomer, unassigned) [Example 217, 6-Chloro-3-[1-[6-methyl-2-(1-methylindazol-5-yl)-4-oxo-chromen-8-yl]ethylamino]pyridine-2-carboxylic acid], the half-inhibitory concentration (IC50) in assay [1] is 1 to 5 µM; in assay [2], greater than 0.5 µM; in assay [3] it was 1 to 5 µM.

As to `Cc1cc([C@@H](C)Nc2cccc(F)c2C(=O)O)c2oc(-c3ccc4nc(C)sc4n3)cc(=O)c2c1` [Example 257, 2-Fluoro-6-[[(1R)-1-[6-methyl-2-(2-methylthiazolo[5,4-b]pyridin-5-yl)-4-oxo-chromen-8-yl]ethyl]amino]benzoic acid], the results for the IC50 in assay [1], in assay [2] and in assay [3] were 1 to 5 µM, less than 0.05 µM and less than 0.5 µM, respectively.

With `Cc1cc([C@@H](C)Nc2cccnc2C(=O)O)c2oc(-c3nn(C)c4ccccc34)c(C)c(=O)c2c1` [Example 205, 3-[[(1R)-1-[3,6-Dimethyl-2-(1-methylindazol-3-yl)-4-oxo-chromen-8-yl]ethyl]amino]pyridine-2-carboxylic acid], the figures for the 50% inhibitory concentration (IC50) in assay [1], in assay [2] and in assay [3] were greater than 10 µM, 0.05 to 0.1 µM and 1 to 5 µM, respectively.

As to `Cc1cc([C@@H](C)Nc2ccc(F)cc2C(=O)O)c2oc(-c3ccc4nc(C)sc4n3)c(C)c(=O)c2c1` [Example 254, 2-[[(1R)-1-[3,6-Dimethyl-2-(2-methylthiazolo[5,4-b]pyridin-5-yl)-4-oxo-chromen-8-yl]ethyl]amino]-5-fluoro-benzoic acid], the values for the IC50 in assay [1], in assay [2] and in assay [3] were 0.5 to 1 µM, less than 0.05 µM and less than 0.5 µM, respectively.

For `Cc1cc(C(C)Nc2ccccc2C(=O)O)c2oc(-c3ccc4cn(C)nc4c3)cc(=O)c2c1` (single isomer, unassigned) [Example 1, 2-[1-[6-Methyl-2-(2-methylindazol-6-yl)-4-oxo-chromen-8-yl]ethylamino]benzoic acid], the results for the IC50 in assay [1], in assay [2] and in assay [3] were 1 to 5 µM, 0.05 to 0.1 µM and less than 0.5 µM, respectively.

`Cc1cc(C(C)Nc2ccccc2C(=O)O)c2oc(-c3ccc4cc[nH]c4c3)cc(=O)c2c1` (stereo not shown) [Example 18, 2-[1-[2-(1H-Indol-6-yl)-6-methyl-4-oxo-chromen-8-yl]ethylamino]benzoic acid]: the values for the half-inhibitory concentration (IC50) in assay [1], in assay [2] and in assay [3] were 1 to 5 µM, 0.1 to 0.5 µM and less than 0.5 µM, respectively.

For `Cc1cc(C(C)Nc2ccccc2C(=O)O)c2oc(-c3ccc4c(c3)c(C)nn4C)cc(=O)c2c1` (single isomer, unassigned) [Example 59, 2-[1-[2-(1,3-Dimethylindazol-5-yl)-6-methyl-4-oxo-chromen-8-yl]ethylamino]benzoic acid], the IC50 is less than 0.05 µM in assay [2] and less than 0.5 µM in assay [3].

Turning to `Cc1cc(C(C)Nc2ccccc2C(=O)O)c2oc(-c3cnn4ccccc34)cc(=O)c2c1` (single isomer, unassigned) [Example 29, 2-[1-(6-Methyl-4-oxo-2-pyrazolo[1,5-a]pyridin-3-yl-chromen-8-yl)ethylamino]benzoic acid], the results for the IC50 in assay [1] and in assay [3] were 5 to 10 µM and less than 0.5 µM, respectively.

As to `Cc1cc(C(C)Nc2ccccc2C(=O)O)c2oc(-c3nccn4cccc34)cc(=O)c2c1` (single isomer, unassigned) [Example 105, 2-[1-(6-Methyl-4-oxo-2-pyrrolo[1,2-a]pyrazin-1-yl-chromen-8-yl)ethylamino]benzoic acid], the concentration for half-maximal inhibition (IC50) is 5 to 10 µM in assay [1] and less than 0.5 µM in assay [3].

Take `Cc1cc(C(C)Nc2ccccc2C(=O)O)c2oc(-c3c[nH]c4ccccc34)cc(=O)c2c1` (single isomer, unassigned) [Example 155, 2-[1-[2-(1H-Indol-3-yl)-6-methyl-4-oxo-chromen-8-yl]ethylamino]benzoic acid]: the IC50 in assay [1] was 1 to 5 µM; in assay [3] it was less than 0.5 µM.

For the compound `Cc1cc(C(C)Nc2cccc(F)c2C(=O)O)c2oc(-c3ccc4nn(C)cc4c3)cc(=O)c2c1` (single isomer, unassigned) [Example 172, 2-Fluoro-6-[1-[6-methyl-2-(2-methylindazol-5-yl)-4-oxo-chromen-8-yl]ethylamino]benzoic acid], the IC50 in assay [1] and in assay [3] was less than 0.5 µM throughout.

With `Cc1cc(C(C)Nc2ccccc2C(=O)O)c2oc(-c3cnc4nn(C)cc4c3)cc(=O)c2c1` (single isomer, unassigned) [Example 41, 2-[1-[6-Methyl-2-(2-methylpyrazolo[3,4-b]pyridin-5-yl)-4-oxo-chromen-8-yl]ethylamino]benzoic acid], the IC50 in assay [1] was 5 to 10 µM; in assay [3], 1 to 5 µM.

Regarding `Cc1cc(C(C)Nc2ccccc2C(=O)O)c2oc(-c3ccc4nccn4c3)cc(=O)c2c1` (single isomer, unassigned) [Example 73, 2-[1-(2-Imidazo[1,2-a]pyridin-6-yl-6-methyl-4-oxo-chromen-8-yl)ethylamino]benzoic acid], the IC50 in assay [1] was 1 to 5 µM; in assay [3], less than 0.5 µM.

`Cc1cc(C(C)Nc2ccccc2C(=O)O)c2oc(-c3ccc4nn(CC(C)(C)O)cc4c3)cc(=O)c2c1` (single isomer, unassigned) [Example 122, 2-[1-[2-[2-(2-Hydroxy-2-methyl-propyl)indazol-5-yl]-6-methyl-4-oxo-chromen-8-yl]ethylamino]benzoic acid]: the half-inhibitory concentration (IC50) is greater than 10 µM in assay [1] and 0.5 to 1 µM in assay [3].

For the compound `Cc1cc(C(C)Nc2ccccc2C(=O)O)c2oc(-c3cc4ncccc4[nH]3)cc(=O)c2c1` (single isomer, unassigned) [Example 147, 2-[1-[6-Methyl-4-oxo-2-(1H-pyrrolo[3,2-b]pyridin-2-yl)chromen-8-yl]ethylamino]benzoic acid], the IC50 in assay [1] is 1 to 5 µM; in assay [3] it was less than 0.5 µM.

Consider `Cc1cc(C(C)Nc2ccccc2C(=O)O)c2oc(-c3cnc4nn(C)cc4c3)cc(=O)c2c1` (single isomer, unassigned) [Example 42, 2-[1-[6-Methyl-2-(2-methylpyrazolo[3,4-b]pyridin-5-yl)-4-oxo-chromen-8-yl]ethylamino]benzoic acid], for which the half-inhibitory concentration (IC50) in assay [1] is 1 to 5 µM; in assay [3], less than 0.5 µM.

On to `Cc1cc(C(C)Nc2ccccc2C(=O)O)c2oc(-c3cccc4c3OCO4)c(C)c(=O)c2c1` (single isomer, unassigned) [Example 92, 2-[1-[2-(1,3-Benzodioxol-4-yl)-3,6-dimethyl-4-oxo-chromen-8-yl]ethylamino]benzoic acid], for which the results for the half-inhibitory concentration (IC50) in assay [1] and in assay [3] were 1 to 5 µM and less than 0.5 µM, respectively.
